row,melting point,Structure (SMILES)
1,209 °C,N#C[C@@H]1CS[C@H]2C[C@](N)(Cc3ccccc3)C(=O)N12.O=C(O)C(F)(F)F
2,173.5 °C,N#C[C@@H]1CS[C@@H]2C[C@@H](N)C(=O)N12.O=C(O)C(F)(F)F
